Measurements as given in article PMC8657723, “Novel Pituitary Actions of TAC4 Gene Products in Teleost” (International Journal of Molecular Sciences, 2021).
Entries after “also recorded” stand apart in the source; their conditions may differ.

What was measured:
Type in all cases: cell-based, grass carp (Ctenopharyngodon idellus)
[1] = tested on: grass carp pituitary cells; test: RT-qPCR of pituitary gene mRNA expression after peptide treatment of grass carp pituitary cells
Excerpt: To further confirm the pituitary actions of HKs in grass carp, trypsin digestion method was used to prepare for grass carp primary cultured pituitary cells. […] After drug treatment, total RNA was extracted from adherent cells by Trizol, and then subjected to reverse transcription using HifairTM III 1st Strand cDNA Synthesis Kit (Yeasen, Shanghai, China). In the present study, β-actin was used as the internal reference gene, and then, the transcript levels of PRL, SLα, CART2, UTS1, and NMB1 were detected by using a ABI 7500 real-time PCR system (see Supplementary Table S2 for primer sequences and PCR condition). In addition, the plasmid DNA containing the gene coding sequence was serially diluted as a standard for data calibration.
In this study, RT-qPCR was used to detect mRNA expression for TAC4, NKRs, PRL, SLα, CART2, UTS1, SN2, and NMB1. In the ABI7500 software, the dynamic mRNA concentration detection range of the double standard curve is 10^5, and the correlation coefficient is >0.95. […] In the transfection experiment, the detected firefly luciferase activity was routinely normalized with the GFP activity expressed in the same well, expressed as the luciferin activity ratio Luc ratio. The data from four parallel experiments was presented as mean ± SEM in the figure. All the data were analyzed by ANOVA, and then subjected to Dunnett’s test in GraphPad Prism 7.0. The significant differences between groups were indicated by p < 0.05.
Figure 5 TAC4 gene products (HK1 and HK2) induced PRL (A) and SLα (B) mRNA expression in grass carp pituitary cells. Time course of grass carp HK1 (1 μM) and HK2 (1 μM) on PRL (A) and SLα (B) mRNA expression in grass carp pituitary cells. Dose-dependence of 24-h treatment with increasing levels of HK1 and HK2 (0.1–1000 nM) on PRL (A) and SLα (B) mRNA expression in grass carp pituitary cells. After drug treatment, the total RNA of the cells was extracted by the Trizol method, and the expression of various genes was detected by RT-PCR. Data presented were expressed as mean ± SEM, and the differences between groups were significant at p-value < 0.05 by labeling diverse letters.
Figure 6 TAC4 gene products (HK1 and HK2) induced CART2, NMB1, and UTS1 mRNA expression in grass carp pituitary cells. Time course of grass carp HK1 (1 μM) and HK2 (1 μM) on CART2 (A), NMB1 (B), and UTS1 (C) mRNA expression in grass carp pituitary cells. Dose-dependence of 24-h treatment with increasing levels of HK1 or HK2 (0.1–1000 nM) on CART2 (A), NMB1 (B), and UTS1 (C) mRNA expression in grass carp pituitary cells. After drug treatment, the total RNA of the cells was extracted by the Trizol method, and the expression of various genes were detected by RT-PCR. Data presented were expressed as mean ± SEM, and the differences between groups were significant at p-value < 0.05 by labeling diverse letters.
(§1) Figure 9 Phe to Val mutation in FXGLM motif in PRL, SLα, and UTS1 regulation by HK2 in grass carp pituitary cells. (A) Effects of HK1-V7F on PRL, SLα, and UTS1 mRNA expression in grass carp pituitary cells. In this experiment, grass carp pituitary cells were incubated for 24 h with increasing levels of HK1-V7F (0.1–1000 nM). (B) Suppressed effects of HK1 on HK2-induced PRL, SLα, and UTS1 mRNA expression in grass carp pituitary cells. Pituitary cells were challenged for 24 h with grass carp HK2 (0.1 µM) in the presence or absence of HK1 (1 µM) and HK1 (10 µM). In these experiment, Trizol method was used to extract total cell RNA, and RT-PCR was used to detect PRL, SLα, and UTS1 mRNA expression. Data presented are expressed as mean ± SEM, and the differences between groups were significant at p-value < 0.05 by labeling diverse letters.

six NKR isoforms = test: Functional activation of the six grass carp NKR isoforms, NFAT-Luc reporter in HEK293T cells; settings: 24 h
Protocol: To clarify the receptor selectivity of TAC4 gene products, a transfection experiment was conducted in HEK293T cells, and the fluorescent signal was detected by the firefly luciferase reporter gene detection kit. Firstly, the cDNA sequences of neurokinin receptor 1 isoforms a (NK1Ra), neurokinin receptor 1 isoforms b (NK1Rb), NK2R, neurokinin receptor 3 isoforms a1 (NK3Ra1), neurokinin receptor 3 isoforms a2 (NK3Ra2), and neurokinin receptor 3 isoforms b (NK3Rb) were isolated from grass carp pituitary, and the coding region of the six receptors were then subcloned into the eukaryotic expression vector pcDNA3.1. Secondly, the HEK293T cells were co-transfected with the plasmids of NFAT-Luc (Nuclear factor of activated T cells-luciferase), green fluorescent protein (GFP), and each pcDNA3.1-NKRs by using Lipofectamine 3000 (Thermo Fisher). The transfected HEK293T cells were incubated with various concentration HK-1 (1–10,000 nM), HK-2 (1–10,000 nM), or HK1-V7F (1–10,000 nM) for 24 h, respectively. Finally, the transfected cells were collected to detect the luciferase value according to the instructions of the firefly luciferase reporter gene detection kit.
To clarify the receptor selectivity of HK1 and HK2 for the six NKRs, HEK-293T cell lines were established to stably express NK1Ra, NK1Rb, NK2R, NK3Rb, NK3Ra1, or NK3Ra2 were established, respectively. The cells were then used for transfection study with NFAT-Luc vectors, which was allowed for functional evaluation of the activation status of Ca^2+-dependent pathway.
Figure 2 Receptor selectivity of HK1, HK2, and HK1-V7F. The nuclear factor of activated T-cells (NFAT)-Luc reporter together with NK1Ra, NK1Rb, NK2R, NK3Rb, NK3Ra1, or NK3Ra2, were transiently transfected into HEK-293 cells, respectively. The cells were incubated with increasing levels of grass carp HK1, HK2, or HK1-V7F (0.1–1000 nM), respectively. The luciferase activities were normalized against renilla expression in the same sample to adjust for potential variations in transfection efficiency. Each point is determined quadruplicate and is given as a mean ± SEM. The groups denoted by different letters represent significant differences at p-value < 0.05 (ANOVA followed Dunnett’s test).

NK2R = test: Functional activation of grass carp NK2R, NFAT-Luc reporter in HEK293T cells; settings: among the six NKR isoforms
Protocol: To clarify the receptor selectivity of TAC4 gene products, a transfection experiment was conducted in HEK293T cells, and the fluorescent signal was detected by the firefly luciferase reporter gene detection kit. Firstly, the cDNA sequences of neurokinin receptor 1 isoforms a (NK1Ra), neurokinin receptor 1 isoforms b (NK1Rb), NK2R, neurokinin receptor 3 isoforms a1 (NK3Ra1), neurokinin receptor 3 isoforms a2 (NK3Ra2), and neurokinin receptor 3 isoforms b (NK3Rb) were isolated from grass carp pituitary, and the coding region of the six receptors were then subcloned into the eukaryotic expression vector pcDNA3.1. Secondly, the HEK293T cells were co-transfected with the plasmids of NFAT-Luc (Nuclear factor of activated T cells-luciferase), green fluorescent protein (GFP), and each pcDNA3.1-NKRs by using Lipofectamine 3000 (Thermo Fisher). The transfected HEK293T cells were incubated with various concentration HK-1 (1–10,000 nM), HK-2 (1–10,000 nM), or HK1-V7F (1–10,000 nM) for 24 h, respectively. Finally, the transfected cells were collected to detect the luciferase value according to the instructions of the firefly luciferase reporter gene detection kit. […]
Figure 2 Receptor selectivity of HK1, HK2, and HK1-V7F. […] Each point is determined quadruplicate and is given as a mean ± SEM. […]

[2] = tested on: grass carp pituitary cells; test: Antagonist effect of HK1 on HK2-induced mRNA expression in grass carp pituitary cells; settings: HK2 0.1 µM + HK1 1 µM and 10 µM, 24 h
Protocol: as §1
Furthermore, to verify whether HK1 could function as an endogenous antagonist of NKRs, we examined the antagonist effect of HK1 on HK2-induced pituitary hormone genes expression.

[3] = 1 µM, 3 h, 6 h, 24 h, 48 h, RT-qPCR, β-actin
[4] = 0.1–1000 nM, 24 h, RT-qPCR, β-actin
[5] = Figure 9B, 24 h static incubation, HK2 0.1 µM

In the case of “TPGLQQVFGLM-NH2 [HK1, grass carp TAC4 mature peptide, …-NH2]”, the “CART2 mRNA expression, time course” value [1, 3] is reported as “no effect”, the “NMB1 mRNA expression, time course” value [1, 3] is reported as “no effect” and the “PRL mRNA expression, time course” value [1, 3] is reported as “no effect”. The “SLα mRNA expression, time course” value [1, 3] was “no effect”, the “UTS1 mRNA expression, time course” value [1, 3] was “no effect” and the “CART2 mRNA expression, dose-dependence” value [1, 4] was “ineffective”. For the same substance, the “NMB1 mRNA expression, dose-dependence” value [1, 4] was “ineffective”, the “PRL mRNA expression, dose-dependence” value [1, 4] was “ineffective” and the “SLα mRNA expression, dose-dependence” value [1, 4] was “ineffective”. For the same substance, the “UTS1 mRNA expression, dose-dependence” value [1, 4] was “ineffective”, the “PRL mRNA stimulation compared to HK2” value [1, 5] was “much weaker” and the “SLα mRNA stimulation compared to HK2” value [1, 5] was “much weaker”. The “UTS1 mRNA stimulation compared to HK2” value [1, 5] was “much weaker”, the “pituitary genes' expression (summary)” value ([1]; grass carp pituitary cells, PRL, SLα, UTS1, NMB1, CART2) was “notably weaker; also recorded: ineffective for the six pituitary genes’ expression” and the “ED50, NFAT-Luc luciferase activity, NKR isoforms” value (six NKR isoforms; HEK-293T expressing each NKR) was over 10 µM. The “activation of the six NKR isoforms (in words)” value (six NKR isoforms; NFAT-Luc luciferase, HEK293T, NK1Ra, NK1Rb, NK2R, NK3Ra1, NK3Ra2, NK3Rb) was “very weak activation; also recorded: relatively low efficient stimulant; also recorded: could barely activate any NKR isoforms”, the “NK2R activation (in words)” value (NK2R) was “very weak activation” and the “suppression of HK2-induced PRL mRNA expression” value [2] was “could not suppress; also recorded: could not block”. For the same substance, the “suppression of HK2-induced SLα mRNA expression” value [2] was “could not suppress; also recorded: could not block” and the “suppression of HK2-induced UTS1 mRNA expression” value [2] was “could not suppress; also recorded: could not block”.
